From patent US6451325B1, “Adjuvant formulation comprising a submicron oil droplet emulsion” (Chiron Corporation, priority 1989, dated 2002)

Tested on: influenza HA (Parke-Davis FLUOGEN)
Parameters: species or system Goats
Conditions: in vivo

CCCCCCCCCCCCCCCC(=O)OC[C@H](COP(=O)(O)OCCNC(=O)[C@H](C)NC(=O)CC[C@@H](NC(=O)[C@H](C)NC(=O)[C@@H](C)O[C@H]1[C@H](O)[C@@H](CO)OC(O)[C@@H]1NC(C)=O)C(N)=O)OC(=O)CCCCCCCCCCCCCCC (stereo partly drawn) [MTP-PE in PBS, N-acetylmuramyl-L-alanyl-D-isoglutaminyl-L-alanine-2-[1,2-dipalmitoyl-sn-glycero-3-(hydroxyphosphoryloxy)]ethylamide]
stimulation of antibody titer after one immunization: no stimulation of antibody titer
